The IC50 is the concentration needed to halve the response being measured.

The target of the assay is T1, human PKCθ full length enzyme (Homo sapiens, UniProt Q04759).
T1 construct: human PKCθ full length enzyme (Panvera Cat# P2996); purchased Panvera P2996
Briefly: PKCθ IMAP assay (fluorescence polarization). Type of assay: biochemical. The note with it: human PKCθ full length enzyme, IMAP; average value; read-out: IC50 PKCθ IMAP. On the technique in general: In fluorescence polarisation assays a small probe gives low polarisation when free and higher when bound to something large.

T1 sequence (Q04759 whole entry): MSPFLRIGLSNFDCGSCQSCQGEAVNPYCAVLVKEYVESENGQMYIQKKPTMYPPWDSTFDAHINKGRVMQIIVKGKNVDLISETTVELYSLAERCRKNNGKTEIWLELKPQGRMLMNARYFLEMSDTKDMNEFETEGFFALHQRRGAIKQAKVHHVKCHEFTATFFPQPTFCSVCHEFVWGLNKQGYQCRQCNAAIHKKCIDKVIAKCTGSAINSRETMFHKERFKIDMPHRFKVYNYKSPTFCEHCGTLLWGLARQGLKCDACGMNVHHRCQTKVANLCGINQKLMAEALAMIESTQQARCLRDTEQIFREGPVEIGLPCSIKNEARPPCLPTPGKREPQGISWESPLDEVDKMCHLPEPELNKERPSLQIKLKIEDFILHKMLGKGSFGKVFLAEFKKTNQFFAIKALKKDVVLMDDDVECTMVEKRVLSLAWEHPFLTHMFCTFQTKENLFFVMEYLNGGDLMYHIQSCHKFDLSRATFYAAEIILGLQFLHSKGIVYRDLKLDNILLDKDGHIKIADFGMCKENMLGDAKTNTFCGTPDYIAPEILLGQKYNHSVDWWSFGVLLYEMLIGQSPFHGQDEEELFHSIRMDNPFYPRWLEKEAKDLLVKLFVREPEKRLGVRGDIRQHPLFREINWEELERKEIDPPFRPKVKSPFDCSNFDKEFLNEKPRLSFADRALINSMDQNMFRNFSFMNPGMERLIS

`COc1cc(-c2cncc(C#N)c2Nc2ccc3[nH]ccc3c2C)ccc1OCCN1CCOCC1` [Compound 378, 5-[3-methoxy-4-(2-morpholin-4-ylethoxy)phenyl]-4-[(4-methyl-1H-indol-5-yl)amino]nicotinonitrile]: the half-maximal inhibitory concentration (IC50) came out at 30 nM.
As to `COc1ccc(-c2cncc(C#N)c2Nc2ccc3[nH]ncc3c2)cc1OC` [Compound 379, 5-(3,4-dimethoxyphenyl)-4-(1H-indazol-5-ylamino)nicotinonitrile], the half-inhibitory concentration (IC50) came to 2530 nM.
To `Cc1c(Nc2c(C#N)cncc2-c2cccc(Cl)c2Cl)ccc2[nH]ccc12` [Compound 380, 5-(2,3-dichlorophenyl)-4-[(4-methyl-1H-indol-5-yl)amino]nicotinonitrile] belongs 50 nM; to `Cc1c(Nc2c(C#N)cncc2-c2ccc(Br)cc2F)ccc2[nH]ccc12` [Compound 381, 5-(4-bromo-2-fluorophenyl)-4-[(4-methyl-1H-indol-5-yl)amino]nicotinonitrile], 20 nM.
Consider `Cc1c(Nc2c(C#N)cncc2-c2cc3cc(CN(C)C)ccc3o2)ccc2[nH]ccc12` [Compound 382, 5-{5-[(dimethylamino)methyl]-1-benzofuran-2-yl}-4-[(4-methyl-1H-indol-5-yl)amino]nicotinonitrile], for which the IC50 was found to be 6 nM.
Consider `Cc1c(Nc2c(C#N)cncc2-c2cc3cc(CNCCO)ccc3o2)ccc2[nH]ccc12` [Compound 383, 5-(5-{[(2-hydroxyethyl)amino]methyl}-1-benzofuran-2-yl)-4-[(4-methyl-1H-indol-5-yl)amino]nicotinonitrile], for which the IC50 is 2 nM.
`Cc1c(Nc2c(C#N)cncc2-c2cc3cc(CNCCCO)ccc3o2)ccc2[nH]ccc12` [Compound 384, 5-(5-{[(3-hydroxypropyl)amino]methyl}-1-benzofuran-2-yl)-4-[(4-methyl-1H-indol-5-yl)amino]nicotinonitrile]: the half-inhibitory concentration (IC50) was determined as 2 nM.
Regarding `Cc1c(Nc2c(C#N)cncc2-c2cc3cc(CNCC(O)CO)ccc3o2)ccc2[nH]ccc12` (stereo not shown) [Compound 385, 5-(5-{[(2,3-dihydroxypropyl)amino]methyl}-1-benzofuran-2-yl)-4-[(4-methyl-1H-indol-5-yl)amino]nicotinonitrile], the IC50 was determined as 2 nM.
With `Cc1c(Nc2c(C#N)cncc2-c2cc3cc(CN(C)CC(O)CO)ccc3o2)ccc2[nH]ccc12` (stereo not shown) [Compound 386, 5-(5-{[(2,3-dihydroxypropyl)(methyl)amino]methyl}-1-benzofuran-2-yl)-4-[(4-methyl-1H-indol-5-yl)amino]nicotinonitrile], the 50% inhibitory concentration (IC50) came to 5 nM.
For `Cc1c(Nc2c(C#N)cncc2-c2cc3cc(CN4CCOCC4)ccc3o2)ccc2[nH]ccc12` [Compound 388, 4-[(4-methyl-1H-indol-5-yl)amino]-5-[5-(morpholin-4-ylmethyl)-1-benzofuran-2-yl]nicotinonitrile], the IC50 came out at 13 nM.
Take `Cc1c(Nc2c(C#N)cncc2-c2cc3cc(CN4CCCC4)ccc3o2)ccc2[nH]ccc12` [Compound 389, 4-[(4-methyl-1H-indol-5-yl)amino]-5-[5-(pyrrolidin-1-ylmethyl)-1-benzofuran-2-yl]nicotinonitrile]: the IC50 came to 3 nM.
Consider `Cc1c(Nc2c(C#N)cncc2-c2cc3cc(CNCCN4CCCC4)ccc3o2)ccc2[nH]ccc12` [Compound 390, 4-[(4-methyl-1H-indol-5-yl)amino]-5-(5-{[(2-pyrrolidin-1-ylethyl)amino]methyl}-1-benzofuran-2-yl)nicotinonitrile], for which the IC50 stood at 1 nM.
`Cc1c(Nc2c(C#N)cncc2-c2cc3cc(CNCC4CCN(C)CC4)ccc3o2)ccc2[nH]ccc12` [Compound 391, 4-[(4-methyl-1H-indol-5-yl)amino]-5-[5-({[(1-methylpiperidin-4-yl)methyl]amino}methyl)-1-benzofuran-2-yl]nicotinonitrile]: the IC50 is 1 nM.
With `Cc1c(Nc2c(C#N)cncc2-c2cc3cc(CN4CCC(CO)CC4)ccc3o2)ccc2[nH]ccc12` [Compound 392, 5-(5-{[4-(hydroxymethyl)piperidin-1-yl]methyl}-1-benzofuran-2-yl)-4-[(4-methyl-1H-indol-5-yl)amino]nicotinonitrile], the IC50 amounted to 5 nM.
For the molecule `Cc1c(Nc2c(C#N)cncc2-c2cc3cc(CN4CCC(N5CCCC5)CC4)ccc3o2)ccc2[nH]ccc12` [Compound 393, 4-[(4-methyl-1H-indol-5-yl)amino]-5-{5-[(4-pyrrolidin-1-ylpiperidin-1-yl)methyl]-1-benzofuran-2-yl}nicotinonitrile], the 50% inhibitory concentration (IC50) was 1 nM.
For the molecule `Cc1c(Nc2c(C#N)cncc2-c2cc3cc(CN4CCC(N5CCCCC5)CC4)ccc3o2)ccc2[nH]ccc12` [Compound 394, 5-[5-(1,4′-bipiperidin-1′-ylmethyl)-1-benzofuran-2-yl]-4-[(4-methyl-1H-indol-5-yl)amino]nicotinonitrile], the IC50 was 1 nM.
To `Cc1c(Nc2c(C#N)cncc2-c2cc3cc(CN4CCC(N5CCOCC5)CC4)ccc3o2)ccc2[nH]ccc12` [Compound 395, 4-[(4-methyl-1H-indol-5-yl)amino]-5-{5-[(4-morpholin-4-ylpiperidin-1-yl)methyl]-1-benzofuran-2-yl}nicotinonitrile] belongs 4 nM; to `Cc1c(Nc2c(C#N)cncc2-c2cc3cc(CN4CCN(CCN(C)C)CC4)ccc3o2)ccc2[nH]ccc12` [Compound 396, 5-[5-({4-[2-(dimethylamino)ethyl]piperazin-1-yl}methyl)-1-benzofuran-2-yl]-4-[(4-methyl-1H-indol-5-yl)amino]nicotinonitrile], 2 nM.
Take `Cc1c(Nc2c(C#N)cncc2-c2cc3cc(CN4CCN(c5ccccn5)CC4)ccc3o2)ccc2[nH]ccc12` [Compound 397, 4-[(4-methyl-1H-indol-5-yl)amino]-5-{5-[(4-pyridin-2-ylpiperazin-1-yl)methyl]-1-benzofuran-2-yl}nicotinonitrile]: the concentration for half-maximal inhibition (IC50) was found to be 13 nM.
In the case of `Cc1c(Nc2c(C#N)cncc2-c2cc3cc(CNCc4ccccn4)ccc3o2)ccc2[nH]ccc12` [Compound 398, 4-[(4-methyl-1H-indol-5-yl)amino]-5-(5-{[(pyridin-2-ylmethyl)amino]methyl}-1-benzofuran-2-yl)nicotinonitrile], the IC50 was 3 nM.
For `Cc1c(Nc2c(C#N)cncc2-c2cc3cc(CNCc4cccnc4)ccc3o2)ccc2[nH]ccc12` [Compound 399, 4-[(4-methyl-1H-indol-5-yl)amino]-5-(5-{[(pyridin-3-ylmethyl)amino]methyl}-1-benzofuran-2-yl)nicotinonitrile], the half-maximal inhibitory concentration (IC50) stood at 2 nM.
`Cc1c(Nc2c(C#N)cncc2-c2cc3cc(CNCc4ccncc4)ccc3o2)ccc2[nH]ccc12` [Compound 400, 4-[(4-methyl-1H-indol-5-yl)amino]-5-(5-{[(pyridin-4-ylmethyl)amino]methyl}-1-benzofuran-2-yl)nicotinonitrile]: the IC50 was found to be 2 nM.
As to `Cc1c(Nc2c(C#N)cncc2-c2ccc(CN3CCOCC3)o2)ccc2[nH]ccc12` [Compound 401, 4-[(4-methyl-1H-indol-5-yl)amino]-5-[5-(morpholin-4-ylmethyl)-2-furyl]nicotinonitrile], the IC50 stood at 8 nM.
On to `Cc1c(Nc2c(C#N)cncc2-c2ccc(CN3CCCCC3)o2)ccc2[nH]ccc12` [Compound 402, 4-[(4-methyl-1H-indol-5-yl)amino]-5-[5-(piperidin-1-ylmethyl)-2-furyl]nicotinonitrile], for which the half-maximal inhibitory concentration (IC50) was 41 nM.
With `Cc1c(Nc2c(C#N)cncc2-c2ccc(CN3CCC(N4CCCCC4)CC3)o2)ccc2[nH]ccc12` [Compound 403, 5-[5-(1,4′-bipiperidin-1′-ylmethyl)-2-furyl]-4-[(4-methyl-1H-indol-5-yl)amino]nicotinonitrile] the figure was 5 nM; with `Cc1c(Nc2c(C#N)cncc2-c2ccc(CN3CCC(N4CCCC4)CC3)o2)ccc2[nH]ccc12` [Compound 404, 4-[(4-methyl-1H-indol-5-yl)amino]-5-{5-[(4-pyrrolidin-1-ylpiperidin-1-yl)methyl]-2-furyl}nicotinonitrile], 4 nM; with `Cc1c(Nc2c(C#N)cncc2-c2ccc(CN3CCC(N4CCOCC4)CC3)o2)ccc2[nH]ccc12` [Compound 405, 4-[(4-methyl-1H-indol-5-yl)amino]-5-{5-[(4-morpholin-4-ylpiperidin-1-yl)methyl]-2-furyl}nicotinonitrile], 9 nM.
On to `CCN(CC)Cc1ccc(-c2cncc(C#N)c2Nc2ccc3[nH]ccc3c2C)o1` [Compound 406, 5-{5-[(diethylamino)methyl]-2-furyl}-4-[(4-methyl-1H-indol-5-yl)amino]nicotinonitrile], for which the half-maximal inhibitory concentration (IC50) is 42 nM.
For the molecule `CCCCN(CCCC)Cc1ccc(-c2cncc(C#N)c2Nc2ccc3[nH]ccc3c2C)o1` [Compound 407, 5-{5-[(dibutylamino)methyl]-2-furyl}-4-[(4-methyl-1H-indol-5-yl)amino]nicotinonitrile], the 50% inhibitory concentration (IC50) stood at 20 nM.
With `Cc1c(Nc2c(C#N)cncc2-c2ccc(CNCc3ccccc3)o2)ccc2[nH]ccc12` [Compound 408, 5-{5-[(benzylamino)methyl]-2-furyl}-4-[(4-methyl-1H-indol-5-yl)amino]nicotinonitrile], the half-inhibitory concentration (IC50) worked out at 11 nM.
To `COc1ccc(-c2cncc(C#N)c2Nc2cc3cc[nH]c3cc2C)cc1OC` [Compound 412, 5-(3,4-dimethoxyphenyl)-4-[(6-methyl-1H-indol-5-yl)amino]nicotinonitrile] belongs 10 nM; to `Cc1cc2[nH]ccc2cc1Nc1c(C#N)cncc1-c1cc2ccccc2o1` [Compound 413, 5-(1-benzofuran-2-yl)-4-[(6-methyl-1H-indol-5-yl)amino]nicotinonitrile], 55 nM.
Take `Cc1c(Nc2c(C#N)cncc2-c2ccc(OCCNCCO)cc2)ccc2[nH]ccc12` [Compound 414, 5-(4-{2-[(2-hydroxyethyl)amino]ethoxy}phenyl)-4-[(4-methyl-1H-indol-5-yl)amino]nicotinonitrile]: the IC50 was found to be 4 nM.
To `Cc1c(Nc2c(C#N)cncc2-c2ccc(OCCNCCCO)cc2)ccc2[nH]ccc12` [Compound 415, 5-(4-{2-[(3-hydroxypropyl)amino]ethoxy}phenyl)-4-[(4-methyl-1H-indol-5-yl)amino]nicotinonitrile] belongs 5 nM.

The record behind these values is patent US7781591B2, “Substituted 3-cyanopyridines as protein kinase inhibitors” (Wyeth LLC, priority 2006, dated 2010).
